Assay results taken from US5849690A, “Anti-aggregatory peptides” (SmithKline Beecham Corporation, priority 1992, dated 1998).
Residues, ends and D or L forms follow the SMILES beside them.

Tests used:
[1] = target: T1, Platelet rich plasma, PRP (Canis lupus familiaris, UniProt A0A8I3N5G5+A0A8I3PMU9); assay: Inhibition of platelet aggregation, PRP/ADP; assay type: cell-based; conditions: dog platelet rich plasma, 2 μM ADP, peptide added 3 min. prior to agonist; read-out: Antiaggregatory Activity IC50, μM PRP/ADP
T1 sequence (A0A8I3N5G5 1-1047): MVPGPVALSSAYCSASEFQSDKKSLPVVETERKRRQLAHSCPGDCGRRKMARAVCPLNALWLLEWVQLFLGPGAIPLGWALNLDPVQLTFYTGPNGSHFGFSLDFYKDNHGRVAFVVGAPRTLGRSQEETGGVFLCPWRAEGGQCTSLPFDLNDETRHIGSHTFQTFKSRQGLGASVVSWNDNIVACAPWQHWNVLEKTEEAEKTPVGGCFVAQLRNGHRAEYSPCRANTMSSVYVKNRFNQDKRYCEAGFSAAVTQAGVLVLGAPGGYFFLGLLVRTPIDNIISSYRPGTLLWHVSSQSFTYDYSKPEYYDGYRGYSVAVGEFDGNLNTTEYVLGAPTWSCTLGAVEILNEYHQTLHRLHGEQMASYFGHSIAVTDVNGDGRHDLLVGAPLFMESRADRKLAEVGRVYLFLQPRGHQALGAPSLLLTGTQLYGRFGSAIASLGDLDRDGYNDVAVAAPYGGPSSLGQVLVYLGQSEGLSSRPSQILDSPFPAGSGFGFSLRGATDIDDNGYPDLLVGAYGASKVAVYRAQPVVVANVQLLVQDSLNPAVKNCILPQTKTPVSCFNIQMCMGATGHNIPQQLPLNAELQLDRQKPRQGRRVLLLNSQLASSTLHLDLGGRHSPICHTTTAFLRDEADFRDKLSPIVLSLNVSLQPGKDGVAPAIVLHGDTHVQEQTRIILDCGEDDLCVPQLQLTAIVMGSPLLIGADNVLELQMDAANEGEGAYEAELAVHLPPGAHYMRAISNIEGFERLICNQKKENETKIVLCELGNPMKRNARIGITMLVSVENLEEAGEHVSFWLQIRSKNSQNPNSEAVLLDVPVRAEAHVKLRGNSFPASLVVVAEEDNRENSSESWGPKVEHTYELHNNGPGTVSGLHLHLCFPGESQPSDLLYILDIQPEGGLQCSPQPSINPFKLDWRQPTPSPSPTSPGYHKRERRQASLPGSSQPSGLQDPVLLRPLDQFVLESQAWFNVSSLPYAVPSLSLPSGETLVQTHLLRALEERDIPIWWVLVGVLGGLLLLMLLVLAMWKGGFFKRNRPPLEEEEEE
T1 sequence (A0A8I3PMU9 1-919): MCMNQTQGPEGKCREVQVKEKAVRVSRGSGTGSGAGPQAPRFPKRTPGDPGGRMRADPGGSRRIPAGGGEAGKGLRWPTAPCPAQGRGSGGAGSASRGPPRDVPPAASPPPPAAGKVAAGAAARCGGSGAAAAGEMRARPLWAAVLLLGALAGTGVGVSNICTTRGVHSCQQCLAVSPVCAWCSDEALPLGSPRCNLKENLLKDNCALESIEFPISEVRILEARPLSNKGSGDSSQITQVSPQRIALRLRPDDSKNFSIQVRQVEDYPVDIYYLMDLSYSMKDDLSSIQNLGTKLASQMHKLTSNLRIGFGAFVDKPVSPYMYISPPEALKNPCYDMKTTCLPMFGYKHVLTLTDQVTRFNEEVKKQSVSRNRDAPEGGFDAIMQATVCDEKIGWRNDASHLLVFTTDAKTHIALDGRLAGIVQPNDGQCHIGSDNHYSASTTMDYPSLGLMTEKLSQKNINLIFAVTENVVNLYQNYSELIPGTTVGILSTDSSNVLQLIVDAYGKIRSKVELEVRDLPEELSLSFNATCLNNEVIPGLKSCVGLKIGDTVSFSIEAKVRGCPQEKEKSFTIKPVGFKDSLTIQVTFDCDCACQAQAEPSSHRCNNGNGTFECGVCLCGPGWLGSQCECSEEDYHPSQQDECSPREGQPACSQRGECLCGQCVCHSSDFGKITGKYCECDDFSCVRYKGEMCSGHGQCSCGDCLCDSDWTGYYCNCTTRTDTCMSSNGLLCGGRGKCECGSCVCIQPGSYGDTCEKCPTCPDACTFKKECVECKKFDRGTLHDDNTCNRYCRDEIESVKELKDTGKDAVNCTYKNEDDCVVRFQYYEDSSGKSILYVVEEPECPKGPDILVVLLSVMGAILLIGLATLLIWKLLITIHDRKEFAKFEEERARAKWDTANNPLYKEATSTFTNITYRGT
Protocol: (§1) Blood was collected (citrated to prevent coagulation) from, naive, adult mongrel dogs. Platelet rich plasma, PRP, was prepared by centrifugation at 150×g for 10 min. at room temperature. Washed platelets were prepared by centrifuging PRP at 800×g for 10 min. The cell pellet thus obtained was washed twice in Tyrode's buffer (pH 6.5) without Ca^2+ and resuspended in Tyrode's buffer (pH 7.4) containing 1.8 mM Ca^2+ at […]. Peptides were added 3 min. prior to the agonist in all assays of platelet aggregation. Final agonist concentrations were 0.1 unit/ml thrombin and 2 μM ADP (Sigma). Aggregation was monitored in a Chrono-Log Lumi-Aggregometer. Light transmittance 5 min. after addition of the agonist was used to calculate percent aggregation according to the formula % aggregation=[(90-CR).div.(90-10)]×100, where CR is the chart reading, 90 is the baseline, and 10 is the PRP blank reading. IC50 's were determined by plotting [% inhibition of aggregation] vs. [concentration of peptide]. Peptides were assayed at 200 μM and diluted sequentially by a factor of 2 to establish a suitable dose response curve.

Washed platelets = target: T2, Washed platelets (Canis lupus familiaris, UniProt A0A8I3N5G5+A0A8I3PMU9); assay: Inhibition of platelet aggregation, WP/Thrombin; assay type: cell-based; conditions: dog washed platelets, 0.1 unit/ml thrombin, peptide added 3 min. prior to agonist; read-out: Antiaggregatory Activity IC50, μM WP/Thrombin
T2 sequence (A0A8I3N5G5 1-1047): T1 sequence (A0A8I3N5G5 1-1047)
T2 sequence (A0A8I3PMU9 1-919): T1 sequence (A0A8I3PMU9 1-919)
Protocol: as §1

[2] = Stability of the peptide to plasma proteases (3 hrs. incubation in PRP before agonist); assay type: in vitro ADME, dog; conditions: peptide incubated 3 hrs. in PRP prior to addition of agonist
Protocol: as §1
To assess the stability of the peptide to plasma proteases, the peptides were incubated for 3 hrs. (rather than 3 min.) in the PRP prior to addition of the agonist.

[3] = system: platelet aggregation/thrombus formation; assay: In vivo inhibition of thrombus formation, coronary thrombosis model in anesthetized dogs; parameters: species or system dog; conditions: 400 mM at 0.1 ml/min
Protocol: Briefly, a small Lexan® cylinder is placed around a mechanically damaged left circumflex coronary artery to produce a fixed partial obstruction of 80-90%. Under these conditions, platelets adhere to the exposed subendothelial collagen and aggregate at the obstructed site. Aggregation is assessed as a gradual reduction in blood flow over 2-3 min. until the thrombus is mechanically dislodged from the lumen of the obstructed vessel and coronary blood flow is restored. This process is allowed to repeat itself every 2-3 min. through the control period of the experiment.

Row | Compound | IC50 [1] [µM] | IC50 (Washed platelets) [µM] | % Activity after 3 hr. in PRP [2] [%] | effect of infusion upon coronary arterial blood pressure [3]
1 | CC(=O)N[C@@H](CCCN=C(N)N)C(=O)NCC(=O)N[C@@H](CC(=O)O)C(N)=O [Example 29, N^α -Ac-Arg-Gly-Asp-NH2] | 138 | 356 | – | –
2 | CC(=O)N(C)[C@@H](CCCNC(=N)N)C(=O)NCC(=O)N[C@@H](CC(=O)O)C(=O)N[C@@H](CO)C(N)=O [Example 26, N^α -Ac-N a-MeArg-Gly-Asp-Ser-NH2] (HELM PEPTIDE1{[ac].[meR].G.D.S.[am]}$$$$V2.0) | 7.4 | 28.2 | 100 | –
3 | CC(=O)N[C@H]1CSSC[C@@H](C(N)=O)NC(=O)[C@H](CO)NC(=O)[C@H](CC(=O)O)NC(=O)CNC(=O)[C@H](CCCNC(=N)N)N(C)C1=O [Example 1, N^α -Ac-Cyclo(S,S) Cys-MeArg-Gly-Asp-Ser-Cys-NH2] (HELM PEPTIDE1{[ac].C.[meR].G.D.S.C.[am]}$PEPTIDE1,PEPTIDE1,2:R3-7:R3$$$V2.0) | 1.1 | – | 100 | –
4 | CC(=O)N[C@@H](CCCNC(=N)N)C(=O)NCC(=O)N[C@@H](CC(=O)O)C(=O)N[C@@H](Cc1ccc2ccccc2c1)C(N)=O [Example 32, N^α -Ac-Arg-Gly-Asp-Nal-NH2] (HELM PEPTIDE1{[ac].R.G.D.[O=C([C@H](Cc1ccc2ccccc2c1)N[*:1])[*:2]].[am]}$$$$V2.0) | 40.5 | – | 100 | –
5 | CC(=O)N[C@H]1CSSC[C@@H](C(N)=O)NC(=O)[C@H](CO)NC(=O)[C@H](CC(=O)O)NC(=O)CNC(=O)[C@H](CCCN=C(N)N)NC1=O [Example 3, N^α -Ac-Cyclo(S,S) Cys-Arg-Gly-Asp-Ser-Cys-NH2] (HELM PEPTIDE1{[ac].C.R.G.D.S.C.[am]}$PEPTIDE1,PEPTIDE1,2:R3-7:R3$$$V2.0) | – | 54.3 | – | –
6 | CC(=O)N[C@@H](CCCN=C(N)N)C(=O)NCC(=O)N[C@@H](CC(=O)O)C(=O)N[C@@H](CO)C(N)=O [Example 27, N^α -Ac-Arg-Gly-Asp-Ser-NH2] (Ac-RGDS-NH2) | – | – | 0 | no effect
7 | CC(=O)N[C@@H](CCCCNC(=N)N)C(=O)NCC(=O)N[C@@H](CC(=O)O)C(=O)N[C@@H](CO)C(N)=O [Example 36, Ac-HArg-Gly-Asp-Ser-NH2] (HELM PEPTIDE1{[ac].[N=C(N)NCCCC[C@H](N[*:1])C(=O)[*:2]].G.D.S.[am]}$$$$V2.0) | 68.2 | – | – | –
8 | CC(=O)N(C)[C@@H](CCCNC(=N)N)C(=O)NCC(=O)N[C@@H](CC(=O)O)C(=O)N[C@@H](Cc1ccccc1)C(N)=O [Example 35, N^α -Ac-MeArg-Gly-Asp-Phe-NH2] (HELM PEPTIDE1{[ac].[meR].G.D.F.[am]}$$$$V2.0) | 10.8 | – | 100 | –
9 | Ac-RRGDF-NH2 [Example 33, N^α -Ac-Arg-Arg-Gly-Asp-Phe-NH2] | 113 | – | – | –
10 | CCNC(=O)[C@H]1NC(=O)[C@H](CC(=O)O)NC(=O)CNC(=O)[C@H](CCCNC(=N)N)NC(=O)[C@@H](NC(C)=O)CSSC1(C)C [Example 16, N^α -Ac-Cyclo(S,S)Cys-Arg-Gly-Asp-Pen-NHEt] (HELM PEPTIDE1{[ac].C.R.G.D.[Pen].[CCN[*:1]]}$PEPTIDE1,PEPTIDE1,2:R3-6:R3$$$V2.0) | 9.5 | – | – | –
11 | N^α -Ac-Arg-Gly-Asp-Tyr-NH2 [Example 28] | 102 | 137 | 98 | –
12 | CC(=O)N[C@H]1CSSC[C@@H](C(N)=O)NC(=O)[C@H](CO)NC(=O)[C@H](CC(=O)O)NC(=O)CNC(=O)[C@H](CCCNC(=N)N)NC1=O [Example 3, N^α -Ac-Cyclo(S,S) Cys-Arg-Gly-Asp-Ser-Cys-NH2] (HELM PEPTIDE1{[ac].C.R.G.D.S.C.[am]}$PEPTIDE1,PEPTIDE1,2:R3-7:R3$$$V2.0) | 32.7 | – | – | –
13 | CC(=O)N[C@@H](CCCN=C(N)N)C(=O)NCC(=O)N[C@@H](CC(=O)O)C(=O)N[C@H](C(N)=O)C(C)C [Example 31, N^α -Ac-Arg-Gly-Asp-Val-NH2] (Ac-RGDV-NH2) | 55.5 | – | – | –
14 | CC(=O)N[C@H]1CSSC(C)(C)[C@@H](C(N)=O)NC(=O)[C@H](CC(=O)O)NC(=O)CNC(=O)[C@@H](CCCNC(=N)N)NC1=O [Example 17, N^α -Ac-Cyclo(S,S)Cys-D-Arg-Gly-Asp-Pen-NH2] (HELM PEPTIDE1{[ac].C.[dR].G.D.[Pen].[am]}$PEPTIDE1,PEPTIDE1,2:R3-6:R3$$$V2.0) | 4.1 | – | – | –
15 | CC(=O)N[C@H]1CSSC(C)(C)[C@@H](C(N)=O)NC(=O)[C@H](CC(=O)O)NC(=O)CNC(=O)[C@H](CCCNC(=N)N)NC1=O [Example 10, N^α -Ac-Cyclo(S,S)Cys-Arg-Gly-Asp-Pen-NH2] (HELM PEPTIDE1{[ac].C.R.G.D.[Pen].[am]}$PEPTIDE1,PEPTIDE1,2:R3-6:R3$$$V2.0) | 4.12 | – | – | –
16 | CC(=O)N[C@H]1CSSC2(CCCCC2)C(C(N)=O)NC(=O)[C@H](CC(=O)O)NC(=O)CNC(=O)[C@H](CCCNC(=N)N)NC1=O (stereo partly drawn) [Example 2, N^α -Ac-Cyclo(S,S) Cys-Arg-Gly-Asp-(D,L) APmp-NH2] (HELM PEPTIDE1{[ac].C.R.G.D.[O=C(C(N[*:1])C1(S[*:3])CCCCC1)[*:2]].[am]}$PEPTIDE1,PEPTIDE1,2:R3-6:R3$$$V2.0) | 1.53 | – | 100 | –
17 | CN[C@@H](CCCNC(=N)N)C(=O)NCC(=O)N[C@@H](CC(=O)O)C(=O)N[C@@H](CO)C(N)=O [Example 37, N^α -MeArg-Gly-Asp-Ser-NH2] (HELM PEPTIDE1{[meR].G.D.S.[am]}$$$$V2.0) | 66.3 | – | – | –
